pEC50: −log10 of the molar value. Counter-ions that a name gives are not always drawn. Like-named read-outs stand apart in the source and are kept apart here.
Assays:
[1] = tested on: Aβ1-42; assay: Aβ1-42 content in conditioned medium of primary cortico-hippocampal neuron cultures from Tg2576 mice (ELISA; primary and secondary dose-response screening); assay type: cell-based, mouse; settings: for Ab1-42 (% of ctl) / activity at 100 µM: drug 100 μM; for activity at 100 µM: Mus musculus, Neuron, 24 h, read-out: Ab1-42 (% of ctl); for reducing Aβ1-42: <85% of ctl
How it was run: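 Primary cortico-hippocampal neurons from embryonic Tg2576 mouse brain were seeded on poly-D-lysine-coated 96-well plates at 1.0×10^5 cells per well in serum-free Neurobasal medium with 2% B27, 0.5 mM L-glutamine and 1% penicillin-streptomycin. For primary screening, duplicate wells received 100 μM drug (1% DMSO final). Vehicle-treated cultures served as controls, and Aβ1-42 in conditioned medium was measured by commercial ELISA.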

[2] = tested on: Aβ1-40; assay: Aβ1-40 content in conditioned medium of primary cortico-hippocampal neuron cultures from Tg2576 mice (ELISA; primary and secondary dose-response screening); assay type: cell-based, mouse; settings: for activity at 100 µM / pEC50: Mus musculus; for activity at 100 µM: 24 h, read-out: Ab1-40 (% of ctl); for activity at 100 µM / Ab1-40 (% of ctl): drug 100 μM; for pEC50: read-out: EC50 (molar) Aβ1-40; for reduced Aβ1-40: <85% of ctl
How it was run: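 Primary cortico-hippocampal neurons from embryonic Tg2576 mice were plated at 1.0×10^5 cells per well on poly-D-lysine-coated 96-well plates in Neurobasal with 2% B27, 0.5 mM L-glutamine and 1% penicillin-streptomycin. Cultures received drug in 1% DMSO, and Aβ1-40 in the conditioned medium was measured by BioSource ELISA 24 hours after treatment, relative to vehicle controls.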

[3] = tested on: primary cortico-hippocampal neuron cultures
Experimental: (§1) For in vitro treatments drugs available from “The Spectrum Collection” in stocks of 10 mM in DMSO were applied directly to cultures to the desired concentrations (final 1% DMSO); control primary neuron cultures from Tg2576 embryos were treated with vehicle resulting in a final 1% DMSO.
(§2) Cell viability was assessed using a commercial available LDH assay kit according to the manufacture's instruction (Promega).

[4] = tested on: Aβ1-42; assay: Aβ1-42 content in conditioned medium of primary cortico-hippocampal neuron cultures from Tg2576 mice (ELISA; primary and secondary dose-response screening); assay type: cell-based, mouse; settings: Mus musculus, 24 h; for activity at 100 µM: primary screening, drug 100 μM, Tg2576 neuron cultures, table sorted by Aβ1-42, read-out: Ab1-42 (% of ctl); for pEC50: Neuron, read-out: EC50 (molar) Aβ1-42
[5] = tested on: primary cortico-hippocampal neuron cultures; assay: MTT in primary screening
[6] = tested on: primary cortico-hippocampal neuron cultures; assay: lactate dehydrogenase (LDH) activity assay in parallel neuron cultures; settings: for LDH at E-5M % of change: drug at E-5M
Experimental: as §1, §2

[7] = Primary Screening, table sorted by Aβ1-40
[8] = primary screening, Tg2576 neuron cultures, table sorted by Aβ1-42
[9] = primary screening, table sorted by Aβ1-42
[10] = Neuron, Primary Screening, table sorted by Aβ1-40
[11] = Neuron, primary screening, Tg2576 neuron cultures, table sorted by Aβ1-42
[12] = Neuron, secondary dose-response screening 0.01-100 μM, 24 hours
[13] = secondary dose-response screening 0.01-100 μM, 24 hours

CC[C@H]1[C@@H]2C[C@H]3[C@@H]4N(C)c5ccccc5[C@]45C[C@@H]([C@H]2[C@H]5O)N3[C@@H]1O [Ajmaline]
Ab1-42 (% of ctl) [1, 7]: 103.3 % of ctl | activity at 100 µM [2, 8]: 114% | Ab1-40 (% of ctl) [2, 7]: 114.0 % of ctl | LDH (% of ctl) ([3]; Tg2576, mouse): 97.6 % of ctl | activity at 100 µM [4]: 103% | MTT (% of ctl) [5, 7]: 90.3 % of ctl | MTT (% of ctl) [5, 9]: 90.3 % of ctl

N=C(N)NCCN1CCCCCCC1 [Guanethidine Sulfate]
LDH (% of ctl) ([3]; Tg2576, mouse): 1057.3 % of ctl

Cc1ccc(N(CC2=NCCN2)c2cccc(O)c2)cc1 [Phentolamine Hydrochloride]
LDH (% of ctl) [6, 7]: 90.7 % of ctl | LDH at E-5M % of change [6]: −3.4% | LDH (% of ctl) [6, 9]: 90.7 % of ctl | activity at 100 µM [1, 7]: 72.9% | activity at 100 µM [1, 8]: 72.9% | reducing Aβ1-42 ([1]; primary screening): useful in reducing Aβ1-42 | activity at 100 µM [2, 10]: 83.4% | activity at 100 µM [2, 11]: 83.4% | pEC50 [2, 12]: 4.92 | reduced Aβ1-40 ([2]; primary screening): reduced Aβ1-40 | pEC50 [4, 13]: 7.06 | MTT (% of ctl) [5, 7]: 110.3 % of ctl | MTT (% of ctl) [5, 9]: 110.3 % of ctl

COc1cc2nc(N3CCN(C(=O)c4ccco4)CC3)nc(N)c2cc1OC [Prazosin Hydrochloride]
LDH (% of ctl) [6, 7]: 260.2 % of ctl | LDH at E-5M % of change [6]: 5.0% | LDH (% of ctl) [6, 9]: 260.2 % of ctl | activity at 100 µM [1, 7]: 23.2% | activity at 100 µM [1, 8]: 23.2% | reducing Aβ1-42 ([1]; primary screening): useful in reducing Aβ1-42 | activity at 100 µM [2, 10]: 7.6% | activity at 100 µM [2, 11]: 7.6% | pEC50 [2, 12]: 3.24 | reduced Aβ1-40 ([2]; primary screening): reduced Aβ1-40 | pEC50 ([4]; conditioned medium of primary cortico-hippocampal neuron cultures from Tg2576 embryos, 24 hours after treatment, relative to vehicle (1% DMSO) control): 4.17 | pEC50 [4, 13]: 4.17 | MTT (% of ctl) [5, 7]: 99.9 % of ctl | MTT (% of ctl) [5, 9]: 99.9 % of ctl

CC(C)NCC(O)COc1cccc2ccccc12.Cl (stereo not drawn) [Propranolol Hydrochloride (−)]
Ab1-42 (% of ctl) [1, 7]: 32.8 % of ctl | reducing Aβ1-42 ([1]; primary screening): useful in reducing Aβ1-42 | Ab1-42 (% of ctl) [1, 8]: 32.8 % of ctl | Ab1-40 (% of ctl) [2, 7]: 55.0 % of ctl | reduced Aβ1-40 ([2]; primary screening): reduced Aβ1-40 | Ab1-40 (% of ctl) [2, 8]: 55.0 % of ctl | LDH (% of ctl) [3]: 166.6 % of ctl

COC(=O)[C@H]1[C@H]2C[C@@H]3c4[nH]c5cc(OC)ccc5c4CCN3C[C@H]2C[C@@H](OC(=O)c2cc(OC)c(OC)c(OC)c2)[C@@H]1OC [Reserpine]
LDH (% of ctl) [6, 7]: 157.8 % of ctl | LDH at E-5M % of change [6]: −3.4% | LDH (% of ctl) [6, 9]: 157.8 % of ctl | activity at 100 µM [1, 7]: 38.7% | activity at 100 µM [1, 8]: 38.7% | reducing Aβ1-42 ([1]; primary screening): useful in reducing Aβ1-42 | activity at 100 µM [2, 10]: 24.7% | activity at 100 µM [2, 11]: 24.7% | pEC50 [2, 12]: 4.25 | reduced Aβ1-40 ([2]; primary screening): reduced Aβ1-40 | pEC50 [4, 13]: 3.04 | MTT (% of ctl) [5, 7]: 87.2 % of ctl | MTT (% of ctl) [5, 9]: 87.2 % of ctl

C[C@]12CC[C@H]3[C@@H](CC[C@]4(O)C[C@@H](O)CC[C@]34C=O)[C@@]1(O)CC[C@@H]2C1=CC(=O)OC1 [Strophanthidin]
LDH (% of ctl) [6, 7]: 119.4 % of ctl | LDH (% of ctl) [6, 9]: 119.4 % of ctl | Ab1-42 (% of ctl) [1, 7]: 88.6 % of ctl | activity at 100 µM [2, 8]: 108% | Ab1-40 (% of ctl) [2, 7]: 107.5 % of ctl | activity at 100 µM [4]: 88.6% | MTT (% of ctl) [5, 7]: 99.2 % of ctl | MTT (% of ctl) [5, 9]: 99.2 % of ctl

CCCCCCCCNC(C)C(O)c1ccc(SC(C)C)cc1 (stereo not drawn) [Suloctidil]
LDH (% of ctl) [6, 7]: 396.1 % of ctl | LDH at E-5M % of change [6]: −3.4% | LDH (% of ctl) [6, 9]: 396.1 % of ctl | activity at 100 µM [1, 7]: 4.6% | activity at 100 µM [1, 8]: 4.6% | reducing Aβ1-42 ([1]; primary screening): useful in reducing Aβ1-42 | activity at 100 µM [2, 10]: 1.8% | activity at 100 µM [2, 11]: 1.8% | pEC50 [2, 12]: 4.84 | reduced Aβ1-40 ([2]; primary screening): reduced Aβ1-40 | pEC50 [4, 13]: 4.67 | MTT (% of ctl) [5, 7]: 77.7 % of ctl | MTT (% of ctl) [5, 9]: 77.7 % of ctl

Cc1cc(C(C)(C)C)cc(C)c1CC1=NCCN1 [Xylometazoline Hydrochloride]
LDH (% of ctl) [6, 7]: 110.8 % of ctl | LDH (% of ctl) [6, 9]: 110.8 % of ctl | Ab1-42 (% of ctl) [1, 7]: 71.8 % of ctl | reducing Aβ1-42 ([1]; primary screening): useful in reducing Aβ1-42 | activity at 100 µM [2, 8]: 66.6% | Ab1-40 (% of ctl) [2, 7]: 66.6 % of ctl | reduced Aβ1-40 ([2]; primary screening): reduced Aβ1-40 | activity at 100 µM [4]: 71.8% | MTT (% of ctl) [5, 7]: 88.2 % of ctl | MTT (% of ctl) [5, 9]: 88.2 % of ctl

COC(=O)[C@@H]1[C@H]2C[C@H]3c4[nH]c5ccccc5c4CCN3C[C@@H]2CC[C@@H]1O [Yohimbine Hydrochloride]
LDH (% of ctl) [6, 7]: 107.8 % of ctl | LDH at E-5M % of change [6]: 6.0% | LDH (% of ctl) [6, 9]: 107.8 % of ctl | activity at 100 µM [1, 7]: 68.9% | activity at 100 µM [1, 8]: 68.9% | reducing Aβ1-42 ([1]; primary screening): useful in reducing Aβ1-42 | activity at 100 µM [2, 10]: 66.2% | activity at 100 µM [2, 11]: 66.2% | reduced Aβ1-40 ([2]; primary screening): reduced Aβ1-40 | EC50 (molar) Aβ1-40 [2, 13]: no fit | pEC50 [4, 13]: 11.15 | MTT (% of ctl) [5, 7]: 82.7 % of ctl | MTT (% of ctl) [5, 9]: 82.7 % of ctl
